In the oligonucleotide strings, read from the 5' end, every base follows the letter of its sugar. An asterisk marks phosphorothioate; unmarked linkages are phosphodiester. Other units and linkages are bracketed, terminal groups are in braces. A string of capitals states the bases alone. e = 2'-O-(2-methoxyethyl) (MOE); [5mC] = 5-methylcytosine; d = 2'-deoxy (DNA)

Data set [1] deals with rabbit apolipoprotein B mRNA. Nature of the data set: Inhibition of rabbit apolipoprotein B mRNA levels in primary rabbit hepatocytes, real-time PCR. More on the design: % INHIB of rabbit apolipoprotein B mRNA levels: concentration or dose not given beside the values. The format is cell-based. The conditions noted are these: for Percent Inhibition of rabbit apolipoprotein B mRNA levels: averages from two experiments. From the text:
Primary rabbit hepatocytes were purchased from Invitro Technologies (Gaithersburg, Md.) and maintained in Dulbecco's modified Eagle's medium (Gibco). When purchased, the cells had been seeded into 96-well plates for use in RT-PCR analysis and were confluent.
In accordance with the present invention, a series of oligonucleotides was designed to target different regions of rabbit apolipoprotein B, using published sequences (GenBank accession number X07480.1, incorporated herein as SEQ ID NO: 808, GenBank accession number M17780.1, incorporated herein as SEQ ID NO: 809, and a sequence was derived using previously described primers (Tanaka, Journ. Biol. Chem., 1993,268, 12713-12718) representing an mRNA of the rabbit apolipoprotein B, incorporated herein as SEQ ID NO: 810). “Target site” indicates the first (5′-most) nucleotide number on the particular target sequence to which the oligonucleotide binds. All compounds in Table 21 are chimeric oligonucleotides (“gapmers”) 20 nucleotides in length, composed of a central “gap” region consisting of ten 2′-deoxynucleotides, which is flanked on both sides (5′ and 3′ directions) by five-nucleotide “wings”. The wings are composed of 2′-methoxyethyl (2′-MOE)nucleotides. The internucleoside (backbone) linkages are phosphorothioate (P═S) throughout the oligonucleotide. All cytidine residues are 5-methylcytidines. The compounds were analyzed for their effect on rabbit apolipoprotein B mRNA levels in primary rabbit hepatocytes by quantitative real-time PCR as described in other examples herein. Primary rabbit hepatocytes were treated with 150 nM of the compounds in Table 21. For rabbit apolipoprotein B the PCR primers were: • forward primer: AAGCACCCCCAATGTCACC (SEQ ID NO: 811) • reverse primer: […] (SEQ ID NO: 812) and the PCR probe was: FAM-[…]-TAMRA (SEQ ID NO: 813) where FAM (PE-Applied Biosystems, Foster City, Calif.) is the fluorescent reporter dye) and TAMRA (PE-Applied Biosystems, Foster City, Calif.) is the quencher dye. Data are averages from two experiments. If present, “N.D.” indicates “no data”.
In accordance with the present invention, a subset of the antisense oligonuclotides in Example 42 was further investigated in dose-response studies. Treatment doses were 10, 50, 150 and 300 nM. ISIS 233160 (SEQ ID NO: 824), ISIS 233166 (SEQ ID NO: 830), ISIS 233172 (SEQ ID NO: 835), ISIS 233175 (SEQ ID NO: 838), and ISIS 233183 (SEQ ID NO: 846) were analyzed for their effect on rabbit apolipoprotein B mRNA levels in primary rabbit hepatocytes by quantitative real-time PCR as described in other examples herein.
For orientation: In qPCR the cycle at which signal appears reflects the starting amount.

Data set [2] deals with human apolipoprotein B mRNA. In words: Inhibition of human apolipoprotein B mRNA levels in HepG2 cells, quantitative real-time PCR. It is filed as cell-based. Particulars: HepG2 cells; for % Change in apolipoprotein B mRNA expression: 24 hour (Table 41). The gist of the method: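 HepG2 cells at 80% confluency were transfected with antisense oligonucleotide using 3.75 μg/mL Lipofectin in Opti-MEM for 4-7 h and harvested 16-24 h after treatment. Apolipoprotein B mRNA was measured by real-time RT-PCR and normalized to GAPDH or RiboGreen total RNA. Percent inhibition came from untreated-control standard curves.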

For the substance “233149 (antisense eT*eG*e[5mC]*eT*eT*dG*dG*dA*dG*dA*dA*dG*dG*dT*dA*eA*eG*eA*eT*e[5mC]) [compound 233149]”, in data set [1], the “% INHIB of rabbit apolipoprotein B mRNA levels” value (“% INHIB” for short) stood at 0%.

Consider “233150 (antisense eG*e[5mC]*eG*eT*eT*dG*dT*d[5mC]*dT*d[5mC]*d[5mC]*dG*dA*dT*dG*eT*eT*e[5mC]*eT*eG) [compound 233150]”, for which the “% INHIB” value in data set [1] was found to be 20%.

Consider “233151 (antisense eT*eA*eA*eT*e[5mC]*dA*dT*dT*dA*dA*d[5mC]*dT*dT*dG*d[5mC]*eT*eG*eT*eG*eG) [compound 233151]”, for which the “% INHIB” value in data set [1] is 20%.

Regarding “233152 (antisense eT*e[5mC]*eA*eG*e[5mC]*dA*d[5mC]*dG*dT*dA*dG*d[5mC]*dA*dA*dT*eG*e[5mC]*eA*eT*eT) [compound 233152]”, the “% INHIB” value in data set [1] was found to be 0%.

For “233153 (antisense eG*e[5mC]*e[5mC]*eT*eG*dA*dT*dA*d[5mC]*dT*d[5mC]*dA*dG*d[5mC]*dA*e[5mC]*eG*eT*eA*eG) [compound 233153]”, the “% INHIB” value in data set [1] was 0%.

For the substance “233154 (antisense e[5mC]*eA*eA*eT*eT*dG*dA*dA*dT*dG*dT*dA*d[5mC]*dT*d[5mC]*eA*eG*eA*eT*eA) [compound 233154]”, the “% INHIB” value in data set [1] came out at 18%.

On to “233155 (antisense eA*e[5mC]*e[5mC]*eT*e[5mC]*dA*dG*dT*dG*dA*d[5mC]*dT*dT*dG*dT*eA*eA*eT*e[5mC]*eA) [compound 233155]”, for which the “% INHIB” value in data set [1] is on record as 47%.

In the case of “233156 (antisense e[5mC]*eA*e[5mC]*eT*eG*dG*dA*dA*dA*d[5mC]*dT*dT*dG*dT*d[5mC]*eT*e[5mC]*eT*e[5mC]*e[5mC]) [compound 233156]”, in data set [1], the “% INHIB” value is given as 23%.

As to “233157 (antisense eA*eG*eT*eA*eG*dT*dT*dA*dG*dT*dT*dT*d[5mC]*dT*d[5mC]*e[5mC]*eT*eT*eG*eG) [compound 233157]”, the “% INHIB” value in data set [1] worked out at 0%.

Regarding “233159 (antisense eT*e[5mC]*eA*eG*eT*dG*d[5mC]*d[5mC]*d[5mC]*dA*dA*dG*dA*dT*dG*eT*e[5mC]*eA*eG*e[5mC]) [compound 233159]”, the “% INHIB” value in data set [1] is 0%.

With “233160 (antisense eA*eT*eT*eG*eG*dA*dA*dT*dA*dA*dT*dG*dT*dA*dT*e[5mC]*e[5mC]*eA*eG*eG) [compound 233160]”, in data set [1], the “% INHIB” value was 81%. The “Percent Inhibition of rabbit apolipoprotein B mRNA levels” value in data set [1] (10 nM) is reported as 33%; in data set [1] (50 nM), 67%; in data set [1] (150 nM) it was 74%; in data set [1] (300 nM), 80%.

Take “233161 (antisense eT*eT*eG*eG*e[5mC]*dA*dT*dT*dA*dT*d[5mC]*d[5mC]*dA*dA*dT*eG*e[5mC]*eA*eG*eT) [compound 233161]”: in data set [1], the “% INHIB” value turned out to be 28%.

As to “233162 (antisense eG*eT*eT*eG*e[5mC]*d[5mC]*dT*dT*dG*dT*dG*dA*dG*d[5mC]*dA*eG*e[5mC]*eA*eG*eT) [compound 233162]”, the “% INHIB” value in data set [1] is reported as 0%.

As for “233163 (antisense eA*eT*eT*eG*eT*dG*dA*dG*dT*dG*dG*dA*dG*dA*dT*eA*e[5mC]*eT*eT*e[5mC]) [compound 233163]”, the “% INHIB” value in data set [1] was 80%.

As for “233164 (antisense e[5mC]*eA*eT*eA*eT*dG*dT*d[5mC]*dT*dG*dA*dA*dG*dT*dT*eG*eA*eG*eA*e[5mC]) [compound 233164]”, the “% INHIB” value in data set [1] amounted to 8%.

Turning to “233165 (antisense eG*eT*eA*eG*eA*dT*dA*d[5mC]*dT*d[5mC]*d[5mC]*dA*dT*dT*dT*eT*eG*eG*e[5mC]*e[5mC]) [compound 233165]”, in data set [1], the “% INHIB” value is reported as 0%.

Take “233166 (antisense eG*eG*eA*eT*e[5mC]*dA*d[5mC]*dA*dT*dG*dA*d[5mC]*dT*dG*dA*eA*eT*eG*e[5mC]*eT) [compound 233166]”: the “% INHIB” value in data set [1] was 82%. Also, the “Percent Inhibition of rabbit apolipoprotein B mRNA levels” value is on record as 66% in data set [1] (10 nM), 81% in data set [1] (50 nM), 79% in data set [1] (150 nM) and 73% in data set [1] (300 nM).

For “233167 (antisense eT*e[5mC]*eA*eA*eG*d[5mC]*dT*dG*dG*dT*dT*dG*dT*dT*dG*e[5mC]*eA*e[5mC]*eT*eG) [compound 233167]”, the “% INHIB” value in data set [1] worked out at 28%.

As for “233168 (antisense eG*eG*eA*e[5mC]*eT*dG*dT*dA*d[5mC]*d[5mC]*dT*d[5mC]*dA*dA*dG*e[5mC]*eT*eG*eG*eT) [compound 233168]”, the “% INHIB” value in data set [1] is given as 0%.

As to “233169 (antisense eG*e[5mC]*eT*e[5mC]*eA*dT*dT*d[5mC]*dT*d[5mC]*d[5mC]*dA*dG*d[5mC]*dA*eT*e[5mC]*eA*eG*eG) [compound 233169]”, the “% INHIB” value in data set [1] amounted to 14%.

Turning to “233170 (antisense eT*eT*eG*eA*eT*d[5mC]*dT*dA*dT*dA*dA*dT*dA*d[5mC]*dT*eA*eG*e[5mC]*eT*eA) [compound 233170]”, the “% INHIB” value in data set [1] turned out to be 23%.

On to “233173 (antisense eT*eT*eG*eT*eG*dT*dT*d[5mC]*d[5mC]*dT*dT*dG*dA*dA*dG*e[5mC]*eG*eG*e[5mC]*e[5mC]) [compound 233173]”, for which the “% INHIB” value in data set [1] worked out at 3%.

On to “233174 (antisense eT*eG*eT*eG*e[5mC]*dA*d[5mC]*dG*dG*dA*dT*dA*dT*dG*dA*eT*eA*eA*e[5mC]*eG) [compound 233174]”, for which, in data set [1], the “% INHIB” value was 21%.

Consider “233176 (antisense eG*eA*eA*eA*eT*d[5mC]*dT*dG*dG*dA*dA*dG*dA*dG*dA*eG*eA*e[5mC]*e[5mC]*eT) [compound 233176]”, for which, in data set [1], the “% INHIB” value was determined as 62%.

Consider “233177 (antisense eG*eT*eA*eG*e[5mC]*dT*dT*dT*d[5mC]*d[5mC]*d[5mC]*dA*dT*d[5mC]*dT*eA*eG*eG*e[5mC]*eT) [compound 233177]”, for which the “% INHIB” value in data set [1] amounted to 0%.

As to “233178 (antisense eG*eA*eT*eA*eA*d[5mC]*dT*d[5mC]*dT*dG*dT*dG*dA*dG*dG*eG*eT*eA*eG*e[5mC]) [compound 233178]”, the “% INHIB” value in data set [1] was 0%.

For the substance “233179 (antisense eA*eT*eG*eT*eT*dG*d[5mC]*d[5mC]*d[5mC]*dA*dT*dG*dG*d[5mC]*dT*eG*eG*eA*eA*eT) [compound 233179]”, the “% INHIB” value in data set [1] is 65%.

Turning to “233180 (antisense eA*eA*eG*eA*eT*dG*d[5mC]*dA*dG*dT*dA*d[5mC]*dT*dA*d[5mC]*eT*eT*e[5mC]*e[5mC]*eA) [compound 233180]”, in data set [1], the “% INHIB” value is 13%.

For the substance “332785 (antisense GCTTCGCACC; linkages s4 o1 s4 (s phosphorothioate, o phosphodiester), sugars by position and methylation of C not given here; 2'-MOE wings flank a DNA gap) [compound 332785]”, the “% Change in apolipoprotein B mRNA expression” value is on record as “+5%” in data set [2] (10 nM), −2% in data set [2] (50 nM) and −4% in data set [2] (150 nM).

In the case of “ISIS 332770: ISIS 301012 derivative with a single thymidine to cytosine substitution in the center of the oligonucleotide (GCCTCAGTCTTCTTCGCACC; sugars from the 5' end e5 d10 e5, all phosphorothioate, methylation of C not given here)”, in data set [2] (50 or 150 nM, 24 hours), the “potency relative to ISIS 301012 (fold less potent)” value was determined as 3 fold.

Source of the values: patent US7803930B2, “Antisense modulation of apolipoprotein B-expression” (Isis Pharmaceuticals, Inc., priority 2002, dated 2010).
